Measured values reported in US9963464B2, “Macrocyclic compounds” (Bayer Pharma Aktiengesellschaft, priority 2014, dated 2018).

Columns and labels:
CDK2/CycE = biological target: T1, CDK2/CycE (Homo sapiens, UniProt P24941); experiment: CDK2/CycE high ATP kinase assay (TR-FRET, Method 2b); type: biochemical; details: 2 mM ATP
T1 construct: GST; purchased ProQinase GmbH (Freiburg, Germany); host or cells: insect cells (Sf9)
Method: 2b. CDK2/CycE High ATP Kinase Assay:
CDK2/CycE-inhibitory activity of compounds of the present invention at 2 mM adenosine-tri-phosphate (ATP) was quantified employing the CDK2/CycE TR-FRET (TR-FRET=Time Resolved Fluorescence Resonance Energy Transfer) assay as described in the following paragraphs.
Recombinant fusion proteins of GST and human CDK2 and of GST and human CycE, expressed in insect cells (Sf9) and purified by Glutathion-Sepharose affinity chromatography, were purchase from ProQinase GmbH (Freiburg, Germany). As substrate for the kinase reaction biotinylated peptide biotin-Ttds-YISPLKSPYKISEG (C-terminus in amid form) was used which can be purchased e.g. from the company JERINI peptide technologies (Berlin, Germany).
(§1) For the assay 50 nl of a 100 fold concentrated solution of the test compound in DMSO was pipetted into a black low volume 384 well microtiter plate (Greiner Bio-One, Frickenhausen, Germany), 2 μl of a solution of CDK2/CycE in aqueous assay buffer [50 mM Tris/HCl pH 8.0, 10 mM MgCl2, 1.0 mM dithiothreitol, 0.1 mM sodium ortho-vanadate, 0.01% (v/v) Nonidet-P40 (Sigma)] were added and the mixture was incubated for 15 min at 22° C. to allow pre-binding of the test compounds to the enzyme before the start of the kinase reaction. […] The concentration of CDK2/CycE was adjusted depending of the activity of the enzyme lot and was chosen appropriate to have the assay in the linear range, typical concentrations were in the range of 15 ng/ml. The reaction was stopped by the addition of 5 μl of a solution of TR-FRET detection reagents (0.2 μM streptavidine-XL665 [Cisbio Bioassays, Codolet, France] and 1 nM anti-RB(pSer807/pSer811)-antibody from BD Pharmingen [#558389] and 1.2 nM LANCE EU-W1024 labeled anti-mouse IgG antibody [Perkin-Elmer, product no. AD0077, as an alternative a Terbium-cryptate-labeled anti-mouse IgG antibody from Cisbio Bioassays can be used]) in an aqueous EDTA-solution (100 mM EDTA, 0.2% (w/v) bovine serum albumin in 100 mM HEPES pH 7.5).
(§2) The resulting mixture was incubated 1 h at 22° C. to allow the formation of complex between the phosphorylated biotinylated peptide and the detection reagents. Subsequently the amount of phosphorylated substrate was evaluated by measurement of the resonance energy transfer from the Eu-chelate to the streptavidine-XL. Therefore, the fluorescence emissions at 620 nm and 665 nm after excitation at 350 nm were measured in a TR-FRET reader, e.g. a Rubystar (BMG Labtechnologies, Offenburg, Germany) or a Viewlux (Perkin-Elmer). The ratio of the emissions at 665 nm and at […] was taken as the measure for the amount of phosphorylated substrate. The data were normalised (enzyme reaction without inhibitor=0% inhibition, all other assay components but no enzyme=100% inhibition).

CDK9/CycT1 = biological target: T2, CDK9/CycT1 (Homo sapiens, UniProt P50750); experiment: CDK9/CycT1 kinase assay (TR-FRET, Method 1a); type: biochemical; details: for IC50: Method 1a, 10 μM ATP; for Selectivity CDK9 over CDK2: IC50 (CDK2)/IC50 (CDK9): Methods 1a and 2a, minimal values where CDK9 IC50 is at the assay limit
T2 construct: Recombinant full-length His-tagged human CDK9 and CycT1; His; purchased Invitrogen PV4131; host or cells: insect cells
Text: 1a. CDK9/CycT1 Kinase Assay:
CDK9/CycT1-inhibitory activity of compounds of the present invention was quantified employing the CDK9/CycT1 TR-FRET assay as described in the following paragraphs:
as §1, with “Recombinant full-length His-tagged human CDK9 and CycT1, expressed in insect cells and purified by Ni-NTA affinity chromatography, were purchased from Invitrogen (Cat. No PV4131). As substrate for the kinase reaction biotinylated peptide biotin-Ttds-YISPLKSPYKISEG (C-terminus in amid form) was used which can be purchased e.g. from the company JERINI Peptide Technologies (Berlin, Germany). For” for “For”, “CDK9/CycT1” for “CDK2/CycE”, “1 μg/mL.” for “15 ng/ml.”, “AD0077])” for “AD0077, as an alternative a Terbium-cryptate-labeled anti-mouse IgG antibody from Cisbio Bioassays can be used])”
as §2, with “nm was” for “nm were”, “a HTRF” for “a TR-FRET”

T2 sequence (P50750 whole entry): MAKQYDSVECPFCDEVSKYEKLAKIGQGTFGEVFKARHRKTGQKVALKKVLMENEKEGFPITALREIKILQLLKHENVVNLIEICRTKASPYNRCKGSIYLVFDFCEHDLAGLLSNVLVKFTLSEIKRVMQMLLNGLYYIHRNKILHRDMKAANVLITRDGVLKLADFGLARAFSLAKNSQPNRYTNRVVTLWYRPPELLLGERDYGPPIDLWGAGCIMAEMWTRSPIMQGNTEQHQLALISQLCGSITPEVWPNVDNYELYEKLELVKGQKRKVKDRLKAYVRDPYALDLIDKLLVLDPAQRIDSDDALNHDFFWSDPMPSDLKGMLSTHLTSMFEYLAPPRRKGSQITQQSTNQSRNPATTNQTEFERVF
T2 sequence (O60563 whole entry partner): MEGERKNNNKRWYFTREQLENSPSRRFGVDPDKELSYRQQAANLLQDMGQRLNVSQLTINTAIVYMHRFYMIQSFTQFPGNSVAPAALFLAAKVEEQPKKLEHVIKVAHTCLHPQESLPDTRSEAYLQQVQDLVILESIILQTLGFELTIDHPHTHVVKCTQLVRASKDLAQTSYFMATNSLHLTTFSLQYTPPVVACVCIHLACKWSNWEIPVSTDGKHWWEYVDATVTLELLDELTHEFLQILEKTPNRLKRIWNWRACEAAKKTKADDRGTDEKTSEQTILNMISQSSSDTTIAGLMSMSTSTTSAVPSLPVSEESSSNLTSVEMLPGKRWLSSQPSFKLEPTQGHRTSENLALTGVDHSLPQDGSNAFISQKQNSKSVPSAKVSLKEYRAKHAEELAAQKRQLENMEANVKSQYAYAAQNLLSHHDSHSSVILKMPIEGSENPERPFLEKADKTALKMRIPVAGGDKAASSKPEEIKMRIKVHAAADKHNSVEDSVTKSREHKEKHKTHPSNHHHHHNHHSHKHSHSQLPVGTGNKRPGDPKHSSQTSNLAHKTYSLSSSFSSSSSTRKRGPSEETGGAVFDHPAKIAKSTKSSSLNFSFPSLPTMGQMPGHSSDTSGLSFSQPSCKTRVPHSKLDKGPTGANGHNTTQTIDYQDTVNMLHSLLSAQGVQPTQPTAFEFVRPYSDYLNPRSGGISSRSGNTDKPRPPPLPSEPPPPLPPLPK

Row | Compound | IC50 (CDK2/CycE) [nM] | IC50 (CDK9/CycT1) [nM] | Selectivity CDK9 over CDK2: IC50 (CDK2)/IC50 (CDK9) (CDK9/CycT1)
1 | CCNC(=O)N=S(C)(=O)Cc1cc2nc(c1)OCCCOc1cc(F)ccc1-c1cc(ncc1F)N2 (racemic) [Example 17, (rac)-1-[{[15,19-difluoro-3,4-dihydro-2H,11H-10,6-(azeno)-12,16-(metheno)-1,5,11,13-benzodioxadiazacyclooctadecin-8-yl]methyl}(methyl)oxido-λ^6-sulfanylidene]-3-ethylurea] | 35.9 | 4.4 | 1.3
2 | NCCS(=O)(=O)Cc1cc2nc(c1)OCCCOc1cc(F)ccc1-c1cc(ncc1F)N2 [Example 26, 2-({[15,19-difluoro-3,4-dihydro-2H,11H-10,6-(azeno)-12,16-(metheno)-1,5,11,13-benzodioxadiazacyclooctadecin-8-yl]methyl}sulfonyl)ethanamine] | 43.7 | 5.9 | 1.7
3 | CCOC(=O)N=S(C)(=O)Cc1cc2nc(c1)OCCCOc1cc(F)ccc1-c1cc(ncc1F)N2 (racemic) [Example 20, (rac)-ethyl [{[15,19-difluoro-3,4-dihydro-2H,11H-10,6-(azeno)-12,16-(metheno)-1,5,11,13-benzodioxadiazacyclooctadecin-8-yl]methyl}(methyl)oxido-λ^6-sulfanylidene]carbamate] | 44.6 | 5.3 | 2.2
4 | CS(=O)(Cc1cc2nc(c1)OCCCOc1cc(F)ccc1-c1cc(ncc1F)N2)=NC(=O)OCCCl (racemic) [Example 21, (rac)-2-chloroethyl [{[15,19-difluoro-3,4-dihydro-2H,11H-10,6-(azeno)-12,16-(metheno)-1,5,11,13-benzodioxadiazacyclooctadecin-8-yl]methyl}(methyl)oxido-λ^6-sulfanylidene]carbamate] | 74.8 | 7.3 | 1.6
5 | CS(=O)(Cc1cc2nc(c1)OCCCOc1cc(F)ccc1-c1cc(ncc1F)N2)=NS(=O)(=O)CCN (racemic) [Example 23, (rac)-2-amino-N-[{[15,19-difluoro-3,4-dihydro-2H,11H-10,6-(azeno)-12,16-(metheno)-1,5,11,13-benzodioxadiazacyclooctadecin-8-yl]methyl}(methyl)oxido-λ^6-sulfanylidene]ethanesulfonamide] | 272 | 8.7 | 3.5
6 | ({[15,19-difluoro-3,4-dihydro-2H,11H-10,6-(azeno)-12,16-(metheno)-1,5,11,13-benzodioxadiazacyclooctadecin-8-yl]methyl}sulfonyl)acetic acid [Example 27] | 6.3 | 2.9 | 0.8

Second part, the compound after the results:

Row | IC50 (CDK2/CycE) [nM] | IC50 (CDK9/CycT1) [nM] | Selectivity CDK9 over CDK2: IC50 (CDK2)/IC50 (CDK9) (CDK9/CycT1) | Compound
7 | 640 | 7.3 | 13.5 | CSCc1cc2cc(c1)OCCCOc1cc(F)ccc1-c1nc(ncc1F)N2 [Example 2, 15,19-Difluoro-8-[(methylsulfanyl)methyl]-3,4-dihydro-2H,11H-12,16-(azeno)-10,6-(metheno)-1,5,11,13-benzodioxadiazacyclooctadecine]
8 | 2120 | 2.5 | 72.6 | CS(=N)(=O)Cc1cc2nc(c1)OCCOc1cc(F)ccc1-c1cc(ncc1F)N2 (racemic) [Example 11, (rac)-14,18-difluoro-7-[(S-methylsulfonimidoyl)methyl]-2,3-dihydro-10H-9,5-(azeno)-11,15-(metheno)-1,4,10,12-benzodioxadiazacycloheptadecine]
9 | 32.1 | 2.8 | 1.7 | C[S+]([O-])Cc1cc2nc(c1)OCCCOc1cc(F)ccc1-c1cc(ncc1F)N2 (racemic) [Example 4, (rac)-15,19-Difluoro-8-[(methylsulfinyl)methyl]-3,4-dihydro-2H,11H-10,6-(azeno)-12,16-(metheno)-1,5,11,13-benzodioxadiazacyclooctadecine]
10 | 159 | 5.3 | 2.9 | CN=S(C)(=O)Cc1cc2nc(c1)OCCCOc1cc(F)ccc1-c1cc(ncc1F)N2 (racemic) [Example 19, (rac)-8-[(N,S-dimethylsulfonimidoyl)methyl]-15,19-difluoro-3,4-dihydro-2H,11H-10,6-(azeno)-12,16-(metheno)-1,5,11,13-benzodioxadiazacyclooctadecine]
11 | 33.6 | 3.8 | 1.3 | CS(=O)(=O)Cc1cc2nc(c1)OCCCOc1cc(F)ccc1-c1cc(ncc1F)N2 [Example 8, 15,19-difluoro-8-[(methylsulfonyl)methyl]-3,4-dihydro-2H,11H-10,6-(azeno)-12,16-(metheno)-1,5,11,13-benzodioxadiazacyclooctadecine]
12 | 237 | 3.8 | 6.8 | CS(=N)(=O)Cc1cc2cc(c1)OCCCOc1cc(F)ccc1-c1nc(ncc1F)N2 (racemic) [Example 15, (rac)-15,19-difluoro-8-[(S-methylsulfonimidoyl)methyl]-3,4-dihydro-2H,11H-12,16-(azeno)-10,6-(metheno)-1,5,11,13-benzodioxadiazacyclooctadecine]
13 | 113 | 4 | 4.2 | C[S+]([O-])Cc1cc2nc(c1)OCCCCOc1cc(F)ccc1-c1cc(ncc1F)N2 (racemic) [Example 13, (rac)-16,20-difluoro-9-[(methylsulfinyl)methyl]-2,3,4,5-tetrahydro-12H-11,7-(azeno)-13,17-(metheno)-1,6,12,14-benzodioxadiazacyclononadecine]
14 | > 20000 | 18 | 963.7 | CSCc1cc2nc(c1)OCCOc1cc(F)ccc1-c1cc(ncc1F)N2 [Example 9, 14,18-Difluoro-7-[(methylsulfanyl)methyl]-2,3-dihydro-10H-9,5-(azeno)-11,15-(metheno)-1,4,10,12-benzodioxadiazacycloheptadecine]
